# Source: US20080317728A1, “Lowering Uric Acid to Prevent or Accelerate Recovery of Acute Renal Failure” (UNIVERSITY OF FLORIDA RESEARCH FOUNDATION, INC., priority 2004, published 2008)
# Columns and labels:
# Male Sprague-Dawley rats = experiment: Hyperuricemia and serum nitrites/nitrates (NOx) in rats, Example 2; assay type: in vivo; conditions: for serum uric acid: OA 750 mg/kg/day gavage, AP 150 mg/L drinking water; for Serum nitrites and nitrates (NOx): chemiluminescence
# Method: Male Sprague-Dawley rats were housed in standard conditions and fed normal diets. We induced hyperuricemia with an uricase inhibitor, oxonic acid (OA; 750 mg/kg/day), by gavage, with control rats receiving vehicle. Allopurinol (AP) was used to block hyperuricemia by placing AP in the drinking water (150 mg/L). Rats were divided into four groups: (1) Control, (2) AP only, (3) OA only, and (4) OA+AP. Systolic blood pressure was measured using a tail-cuff sphygmomanometer. The amount of drinking water consumed and changes in body weight were noted. Rats were sacrificed at one and seven days. Serum was analyzed for uric acid concentration and nitrites/nitrates (NOx) by chemiluminescence method. (Prabhakar SS: Inhibition of mesangial iNOS by reduced extracellular pH is associated with uncoupling of NADPH oxidation. Kidney Int 61:2015-2024, 2002). Statistical analysis between subgroups was performed using ANOVA.
# [1] = test system: normal rats on normal sodium diet; experiment: Hyperuricemia in normal rats on normal sodium diet: serum uric acid, systolic blood pressure, body weight; assay type: in vivo, Sprague-Dawley rats
# Method: (§1) Experimental Design: All animal procedures were approved by the Animal Care Committee. Male 300-350 g Sprague-Dawley rats were used in all experiments.
# (§2) Hyperuricemia in normal rats on normal sodium diet: To produce hyperuricemia, rats were administered oxonic acid (OA) (Sigma, St Louis Mo., USA) 750 mg/kg body weight by gastric gavage. To prevent the rise of serum uric acid induced by OA, allopurinol (AP) (Sigma, St Louis Mo., USA) was administered in drinking water (150 mg/L). We studied the following groups: Control (n=8); OA (n=7) and OA plus allopurinol (n=9). Systolic blood pressure and serum uric acid were measured at baseline and after 30-33 days of follow-up. Micropuncture studies were performed at 5 weeks.
# (§3) Evaluation: In all studies, systolic blood pressure (SBP) was measured by tail cuff sphyngomanometer using an automated system (Narco Biosystems, Houston Tex., USA). All animals were preconditioned for blood pressure measurements 1 week before each experiment. Proteinuria was determined by turbidimetry by the method of trichloroacetic acid (Henry R J, Sobel Ch, Segalove M: Turbidimetric determination of proteins with sulfosalicylic and trichloroacetic acids. Proc Soc Exp Biol Med 92:748-751, 1956). Serum uric acid was measured by colorimetric phosphotungstic acid method using a commercial kit (Wiener Lab, Argentina).
# (§4) Statistical analysis. Values are expressed as mean±standard error (SE). Differences between groups were evaluated by ANOVA with appropriate correction for multiple comparisons (Bonferroni). The relation between variables was assessed by correlation analysis.
# [2] = test system: remnant kidney rats (5/6 nephrectomy); experiment: Hyperuricemia in remnant kidney rats: serum uric acid, systolic blood pressure, proteinuria, body weight; assay type: in vivo, Sprague-Dawley rats
# Method: as §1
# Hyperuricemia in remnant kidney rats on normal sodium diet: Under light anesthesia with ether, 5/6 nephrectomy was performed by removal of the right kidney and selective ligation of 2-3 branches of left renal artery. To induce hyperuricemia rats were given OA (750 mg/kg) by gastric gavage starting the day after the renal ablation. To prevent hyperuricemia AP was administered in the drinking water (150 mg/L). The following groups were studied: 5/6 Nx (n=10); 5/6 Nx+OA (n=12) and 5/6 Nx+OA+AP (n=13). Systolic blood pressure, proteinuria and serum uric acid were measured at baseline and after 25-28 days of follow-up. Micropuncture studies were performed at 4 weeks.
# as §3, §4
# [3] = test system: normal rats on normal sodium diet; experiment: Renal histology, afferent arteriole morphology in normal rats; assay type: in vivo, Sprague-Dawley rats
# Method: as §2
# Renal Histology: After the micropuncture study kidneys and remnant kidneys were washed by perfusion with PBS and then fixed with 4% paraformaldehyde. Renal biopsies were embedded in paraffin. Four μm sections of fixed tissue were stained with periodic acid Schiff (PAS) reagent. Arteriolar morphology was assessed by indirect peroxidase immunostaining for alpha-smooth muscle actin (DAIO Corp. Carpinteria, Calif., USA). In addition in remnant kidney rats glomerulosclerosis and fibrosis was assessed with Masson's trichrome stain and tubulointerstitial lymphocytes were assessed by indirect immunoperoxidase immunostaining for anti-CD-5.
# Quantification of morphology: Quantifications were performed blinded. […] The media/lumen ratio was calculated by the outline/inline relationship.
smiles,measurement,setting,value
"O=C(O)c1nc(=O)[nH]c(=O)[nH]1 [OA, oxonic acid]",reduction of serum NOx vs control,Male Sprague-Dawley rats; hyperuricemic rats at both 1 day and 7 days,40-50%
same,serum uric acid,"Male Sprague-Dawley rats; rats, 1 day",1.7 ± 0.7 mg/dL
same,Serum nitrites and nitrates (NOx),"Male Sprague-Dawley rats; rats, 1 day",15.6 ± 0.4 µmol/L
same,serum uric acid,"Male Sprague-Dawley rats; rats, 7 days",1.8 ± 0.4 mg/dL
same,Serum nitrites and nitrates (NOx),"Male Sprague-Dawley rats; rats, 7 days",14.6 ± 1.1 µmol/L
same,systolic blood pressure,"Male Sprague-Dawley rats; rats, 7 days, tail cuff",178±18 mm Hg
same,SUA (serum uric acid),"[1]; normal salt diet, OA 750 mg/kg gavage, AP 150 mg/L drinking water, 30-33 days, mean±SE",5.4 ± 0.2 mg/dL
same,SBP (systolic blood pressure),"[1]; normal salt diet, tail cuff, 30-33 days, mean±SE",134 ± 3 mmHg
same,increment of serum uric acid,[1]; vs control,two-fold
same,Uprot (proteinuria),"[2]; 25-28 days, mean±SE",246 ± 29 mg/day
same,SUA (serum uric acid),"[2]; OA 750 mg/kg gavage, AP 150 mg/L drinking water, 25-28 days, mean±SE",4.5 ± 0.4 mg/dL
same,SBP (systolic blood pressure),"[2]; tail cuff, 25-28 days, mean±SE",191 ± 10 mmHg
same,additional rise of proteinuria,[2]; vs RK control,two fold
same,further increase of SBP,[2]; vs RK control,30 mmHg
same,increase of serum uric acid,[2]; vs RK control,two fold
same,AA M/L (afferent arteriole media/lumen ratio),"[3]; after micropuncture, mean±SE",5.1 ± 0.6
"Oc1ncnc2[nH]ncc12 [AP, allopurinol]",change in NOx concentration,Male Sprague-Dawley rats; rats treated with AP alone,did not show a significant change
same,change in serum UA concentration,Male Sprague-Dawley rats; rats treated with AP alone,did not show a significant change
same,serum uric acid,"Male Sprague-Dawley rats; rats, 1 day",1.52 ± 0.3 mg/dL
same,Serum nitrites and nitrates (NOx),"Male Sprague-Dawley rats; rats, 1 day",17.4 ± 0.8 µmol/L
same,serum uric acid,"Male Sprague-Dawley rats; rats, 7 days",0.3 ± 0.2 mg/dL
same,Serum nitrites and nitrates (NOx),"Male Sprague-Dawley rats; rats, 7 days",25.0 ± 0.8 µmol/L
same,effect on the hypertension induced by oxonic acid,[1]; concurrent with oxonic acid,prevented
same,effect on the increase of serum uric acid induced by oxonic acid,[1]; concurrent with oxonic acid,prevented
same,effect on SBP,[2]; concomitant with oxonic acid,only a marginal effect
same,effect on hyperuricemia,[2]; concomitant with oxonic acid,prevented
same,effect on proteinuria,[2]; concomitant with oxonic acid,prevented
same,effect on thickening of afferent arterioles,[3]; with oxonic acid,prevented
